In patent publication US20220168430A1, “THERAPEUTIC METHODS FOR TREATING HEPATITIS B” (priority 2019, published 2022):
Like-named read-outs stand apart in the source and are kept apart here.

System: HBV rcDNA
Assay: Dual agent combination in HepDE19 cells, rcDNA by Quantigene 2.0 bDNA assay (Examples 5-8)
Type: cell-based, HBV; HepDE19 (HepG2 human hepatocarcinoma derived)
Conditions: Hepatitis B virus; for EC50: read-out: Avg. Inhibitor A EC50
Procedure: In vitro dual agent combination studies were conducted using the method of Prichard and Shipman 1990 (Prichard M N, Shipman C, Jr. 1990. Antiviral Res 14:181-205). The HepDE19 cell culture system is a HepG2 (human hepatocarcinoma) derived cell line that supports HBV DNA replication and cccDNA formation under control the control of a CMV Tet-off promoter system (Guo et al. 2007. J Virol 81:12472-84). HepDE19 (50,000 cells/well) were plated in 96 well collagen-coated tissue-culture treated microtiter plates in DMEM/F12 medium supplemented with 10% fetal bovine serum+1% penicillin-streptomycin with tetracycline (1 μg/mL) and incubated in a humidified incubator at 37° C. and 5% CO2 overnight. Next day, the cells were switched to fresh medium without tetracycline and incubated for 4 hrs at 37° C. and 5% CO2. The cells were switched to fresh medium and treated with inhibitor A and inhibitor B, at concentration range spanning their respective EC50 values. […] The two inhibitors were tested both singly as well as in combinations in a checkerboard fashion such that each concentration of inhibitor A was combined with each concentration of inhibitor B to determine their combination effects on inhibition of rcDNA production. There were four replicates of each concentration combination in each experiment. The plates were incubated for 7 days in a humidified incubator at 37° C. and 5% CO2. The level of rcDNA present in the wells was measured using a Quantigene 2.0 bDNA assay kit (Affymetrix, Santa Clara, Calif.) with HBV specific custom probe set (genotype D ayw) and according to the manufacturer's instructions and read using a luminescence plate reader and the relative luminescence units (RLU) data generated from each well was calculated as % inhibition of the untreated control wells and analyzed using the MacSynergy II program to determine whether the combinations were synergistic, additive or antagonistic using the interpretive guidelines established by Prichard and Shipman (Prichard M N, Shipman C, Jr. 1990. […] Each experiment was repeated at least three times and the averages and standard deviations of individual determinations was calculated to derive the conclusion. Concurrently, in each experiment, the effect of inhibitor combinations on cell viability was assessed using replicate plates in triplicates that were used to determine the ATP content as a measure of cell viability using the Cell-Titer Glo reagent (Promega, Madison, Wis.) as per the manufacturer's instructions.

Q: For `Cn1cnc(COC(=O)N[C@H]2CCc3c(C(=O)Nc4ccc(F)c(Cl)c4)ccc(F)c32)n1` [Compound 1], which inhibition at 0.005 µM (HepDE19, Cmpd 1 0.005 μM, ETV μM by grid row: r7 0.0250, r8 0.0083, r9 0.0028, r10 0.0009, r11 0.0003, r12 0, HepDE19 cells, Expt 1, read-out: AVERAGE % INHIBITION, rcDNA) is on record?
A: -5.55%

Q: And the inhibition at 0.01 µM (HepDE19, Cmpd 1 0.010 μM, ETV μM by grid row: r7 0.0250, r8 0.0083, r9 0.0028, r10 0.0009, r11 0.0003, r12 0, HepDE19 cells, Expt 1, read-out: AVERAGE % INHIBITION, rcDNA)?
A: -2.14%

Q: What about the inhibition at 0.02 µM (HepDE19, Cmpd 1 0.020 μM, ETV μM by grid row: r7 0.0250, r8 0.0083, r9 0.0028, r10 0.0009, r11 0.0003, r12 0, HepDE19 cells, Expt 1, read-out: AVERAGE % INHIBITION, rcDNA) of the same compound?
A: 20.8%

Q: And the inhibition at 0.039 µM (HepDE19, Cmpd 1 0.039 μM, ETV μM by grid row: r7 0.0250, r8 0.0083, r9 0.0028, r10 0.0009, r11 0.0003, r12 0, HepDE19 cells, Expt 1, read-out: AVERAGE % INHIBITION, rcDNA)?
A: 28.3%

Q: And the inhibition at 0.156 µM (HepDE19, Cmpd 1 0.156 μM, ETV μM by grid row: r7 0.0250, r8 0.0083, r9 0.0028, r10 0.0009, r11 0.0003, r12 0, HepDE19 cells, Expt 1, read-out: AVERAGE % INHIBITION, rcDNA)?
A: 82%

Q: And the inhibition at 1.25 µM (HepDE19, Cmpd 1 1.25 μM, ETV μM by grid row: r7 0.0250, r8 0.0083, r9 0.0028, r10 0.0009, r11 0.0003, r12 0, HepDE19 cells, Expt 1, read-out: AVERAGE % INHIBITION, rcDNA)?
A: 98.9%

Q: What about the EC50 (HepDE19, Cmpd 1 in combination study with ETV, n = 3) of the same compound?
A: 59 nM

Q: What about the EC50 (HepDE19, Cmpd 1 in combination study with SIRNA-NP, n = 3) of the same compound?
A: 64 nM

Q: And the EC50 (HepDE19, Cmpd 1 in combination study with TAF, n = 4)?
A: 74 nM

Q: What about the EC50 (HepDE19, Cmpd 1 in combination study with TDF, n = 3) of the same compound?
A: 80 nM

Q: What about the inhibition at 0.005 µM (HepDE19, Expt 1 (with TDF), Compound 1 0.005 μM alone, read-out: ADDITIVE INHIBITION) of the same compound?
A: -44.9%

Q: What about the inhibition at 0.005 µM (HepDE19, Expt 1 (with TDF), Compound 1 0.005 μM alone, read-out: AVERAGE % INHIBITION) of the same compound?
A: -44.9%

Q: What about the inhibition at 0.01 µM (HepDE19, Expt 1 (with TDF), Compound 1 0.010 μM alone, read-out: ADDITIVE INHIBITION) of the same compound?
A: -40.7%

Q: What about the inhibition at 0.01 µM (HepDE19, Expt 1 (with TDF), Compound 1 0.010 μM alone, read-out: AVERAGE % INHIBITION) of the same compound?
A: -40.7%

Q: What about the inhibition at 0.02 µM (HepDE19, Expt 1 (with TDF), Compound 1 0.020 μM alone, read-out: ADDITIVE INHIBITION) of the same compound?
A: -21.6%

Q: And the inhibition at 0.02 µM (HepDE19, Expt 1 (with TDF), Compound 1 0.020 μM alone, read-out: AVERAGE % INHIBITION)?
A: -21.6%

Q: What about the inhibition at 0.039 µM (HepDE19, Expt 1 (with TDF), Compound 1 0.039 μM alone, read-out: ADDITIVE INHIBITION) of the same compound?
A: 0.64%

Q: What about the inhibition at 0.039 µM (HepDE19, Expt 1 (with TDF), Compound 1 0.039 μM alone, read-out: AVERAGE % INHIBITION) of the same compound?
A: 0.64%

Q: What about the inhibition at 0.156 µM (HepDE19, Expt 1 (with TDF), Compound 1 0.156 μM alone, read-out: ADDITIVE INHIBITION) of the same compound?
A: 68.2%

Q: What about the inhibition at 0.156 µM (HepDE19, Expt 1 (with TDF), Compound 1 0.156 μM alone, read-out: AVERAGE % INHIBITION) of the same compound?
A: 68.2%

Q: And the inhibition at 1.25 µM (HepDE19, Expt 1 (with TDF), Compound 1 1.250 μM alone, read-out: ADDITIVE INHIBITION)?
A: 97.3%

Q: What about the inhibition at 1.25 µM (HepDE19, Expt 1 (with TDF), Compound 1 1.250 μM alone, read-out: AVERAGE % INHIBITION) of the same compound?
A: 97.3%

Q: What about the inhibition at 0.007 µM (HepDE19, Expt 1, Cmpd 1 0.007 μM alone, read-out: AVERAGE % INHIBITION) of the same compound?
A: -23.5%

Q: And the inhibition at 0.067 µM (HepDE19, Expt 1, Cmpd 1 0.067 μM alone)?
A: 43.7%

Q: What about the inhibition at 0.2 µM (HepDE19, Expt 1, Cmpd 1 0.200 μM alone) of the same compound?
A: 78.4%

Q: And the inhibition at 0.6 µM (HepDE19, Expt 1, Cmpd 1 0.600 μM alone)?
A: 92.9%

Q: And the inhibition at 0.005 µM (HepDE19, Expt 1, Compound 1 0.005 μM alone, read-out: AVERAGE % INHIBITION)?
A: -81.7%

Q: And the inhibition at 0.01 µM (HepDE19, Expt 1, Compound 1 0.010 μM alone, read-out: AVERAGE % INHIBITION)?
A: -86.4%

Q: What about the inhibition at 0.02 µM (HepDE19, Expt 1, Compound 1 0.020 μM alone, read-out: AVERAGE % INHIBITION) of the same compound?
A: -84.7%

Q: What about the inhibition at 0.039 µM (HepDE19, Expt 1, Compound 1 0.039 μM alone, read-out: AVERAGE % INHIBITION) of the same compound?
A: -14.2%

Q: What about the inhibition at 0.156 µM (HepDE19, Expt 1, Compound 1 0.156 μM alone, read-out: AVERAGE % INHIBITION) of the same compound?
A: 59.4%

Q: What about the inhibition at 1.25 µM (HepDE19, Expt 1, Compound 1 1.250 μM alone, read-out: AVERAGE % INHIBITION) of the same compound?
A: 98.3%

Q: What about the inhibition at 0.007 µM (HepDE19, Expt 2 (with TDF), Compound 1 0.007 μM alone, read-out: AVERAGE % INHIBITION) of the same compound?
A: -35.1%

Q: And the inhibition at 0.067 µM (HepDE19, Expt 2 (with TDF), Compound 1 0.067 μM alone)?
A: 28.1%

Q: What about the inhibition at 0.2 µM (HepDE19, Expt 2 (with TDF), Compound 1 0.200 μM alone) of the same compound?
A: 80.5%

Q: What about the inhibition at 0.6 µM (HepDE19, Expt 2 (with TDF), Compound 1 0.600 μM alone) of the same compound?
A: 95.2%

Q: What about the inhibition at 0.005 µM (HepDE19, Expt 2, Cmpd 1 0.005 μM alone, read-out: AVERAGE % INHIBITION) of the same compound?
A: 5.58%

Q: What about the inhibition at 0.01 µM (HepDE19, Expt 2, Cmpd 1 0.010 μM alone, read-out: AVERAGE % INHIBITION) of the same compound?
A: -0.61%

Q: What about the inhibition at 0.02 µM (HepDE19, Expt 2, Cmpd 1 0.020 μM alone, read-out: AVERAGE % INHIBITION) of the same compound?
A: 6.6%

Q: And the inhibition at 0.039 µM (HepDE19, Expt 2, Cmpd 1 0.039 μM alone, read-out: AVERAGE % INHIBITION)?
A: 25.9%

Q: And the inhibition at 0.156 µM (HepDE19, Expt 2, Cmpd 1 0.156 μM alone, read-out: AVERAGE % INHIBITION)?
A: 84.1%

Q: What about the inhibition at 1.25 µM (HepDE19, Expt 2, Cmpd 1 1.250 μM alone, read-out: AVERAGE % INHIBITION) of the same compound?
A: 98.3%
